Laboratory results taken from patent US10781201B2, “Benzimidazole derivative having JNK inhibitory activity and use thereof” (INDUSTRY-UNIVERSITY COOPERATION FOUNDATION HANYANG …, priority 2017, dated 2020).

biological target: human JNK3 enzyme (Homo sapiens, UniProt P53779); assay: Measurement of JNK3 enzymatic activity (33P-ATP filter-binding method); type: biochemical; conditions: Table 1; ATP 10 μM, ATF2 3 μM
Description: First, a substrate was added to a prepared base reaction buffer solution (20 mM Hepes (pH 7.5), 10 mM MgCl2, 1 mM EGTA, 0.02% Brij35, 0.02 mg/ml BSA, 0.1 mM Na3VO4, 2 mM DTT, 1% DMSO), a human JNK3 enzyme was added into the prepared substrate solution, and the resulting solution was mixed. ATP (10 μM) and ATF2 (3 μM) were used as substrates, and among them, ATP was used as a common substrate. Next, the compound according to the present invention dissolved in 100% DMSO was added to an enzyme reaction solution, and incubated at room temperature for 20 minutes. Subsequently, ^33P-ATP was added to the mixed reaction solution to initiate the reaction, followed by incubation at room temperature for 2 hours, and enzymatic activity was detected by a filter-binding method. Specifically, 25 al per resulting solution was slowly spotted on P81 paper and placed in a scintillation vial, and then the paper was washed four times with 0.75% phosphoric acid for 10 minutes each and washed once with acetone for 5 minutes. 5 ml of a scintillation cocktail was added to the scintillation vial and signals were read using a scintillation counter.

Sequence of human JNK3 enzyme (P53779 whole entry): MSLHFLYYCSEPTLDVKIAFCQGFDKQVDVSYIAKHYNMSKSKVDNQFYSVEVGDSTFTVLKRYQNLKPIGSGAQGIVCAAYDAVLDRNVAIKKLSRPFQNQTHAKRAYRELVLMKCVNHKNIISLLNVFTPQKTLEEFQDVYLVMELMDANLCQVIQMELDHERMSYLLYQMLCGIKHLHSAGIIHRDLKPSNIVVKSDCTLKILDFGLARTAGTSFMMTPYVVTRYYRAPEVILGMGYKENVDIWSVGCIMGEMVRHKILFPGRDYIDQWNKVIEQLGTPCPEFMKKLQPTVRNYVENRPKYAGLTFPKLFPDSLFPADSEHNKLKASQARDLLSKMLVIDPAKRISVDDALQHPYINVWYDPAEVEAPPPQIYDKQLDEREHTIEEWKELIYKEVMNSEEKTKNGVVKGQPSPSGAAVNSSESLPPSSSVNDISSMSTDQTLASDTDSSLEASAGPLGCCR

`Oc1ccc2c(c1)nc(-c1ccc3c(c1)OCCO3)n2-c1ccnc(NC2CCOCC2)n1` [Compound 9c, 2-(2,3-dihydrobenzo[b][1,4]dioxin-6-yl)-1-(2-((tetrahydro-2H-pyran-4-yl)amino)pyrimidin-4-yl)-1H-benzo[d]imidazole-5-ol] and `Oc1ccc2c(c1)nc(-c1ccc3c(c1)OCCO3)n2-c1ccnc(NC2CCCCC2)n1` [Compound 10c, 1-(2-(cyclohexylamino)pyrimidin-4-yl)-2-(2,3-dihydrobenzo[b][1,4]dioxin-6-yl)-1H-benzo[d]imidazole-5-ol] cannot be ordered by IC50: > 100 nM for the first, > 100 nM for the second.

Compared with `Oc1ccc2c(c1)nc(-c1ccc(Cl)c(Cl)c1)n2-c1ccnc(NC2CCCCC2)n1` [Compound 10e, 1-(2-(cyclohexylamino)pyrimidin-4-yl)-2-(3,4-dichlorophenyl)-1H-benzo[d]imidazole-5-ol], `Oc1ccc2c(c1)nc(-c1ccc(Cl)c(Cl)c1)n2-c1ccnc(NC2CCOCC2)n1` [Compound 9e] is lower in IC50: > 100 nM for the first, 30 to 100 nM for the second. The second is the more potent here.

First: Oc1c2ccccc2c2c3c(cccc13)N=N2 [SP600125, reference compound]
Second: Oc1ccc2c(c1)nc(-c1ccc3ccccc3c1)n2-c1ccnc(NC2CCOCC2)n1 [Compound 9a, 2-(naphthalene-2-yl)-1-(2-((tetrahydro-2H-pyran-4-yl)amino)pyrimidin-4-yl)-1H-benzo[d]imidazole-5-ol]
The IC50 of the first is lower: 30 to 100 nM for the first, > 100 nM for the second.

`Oc1ccc2c(c1)nc(-c1ccc3occc3c1)n2-c1ccnc(NC2CCCCC2)n1` [Compound 10d, 2-(benzofuran-5-yl)-1-(2-(cyclohexylamine)pyrimidin-4-yl)-1H-benzo[d]imidazole-5-ol] and `Oc1ccc2c(c1)nc(-c1ccc3occc3c1)n2-c1ccnc(NC2CCOCC2)n1` [Compound 9d, 2-(benzofuran-5-yl)-1-(2-((tetrahydro-2H-pyran-4-yl)amino)pyrimidin-4-yl)-1H-benzo[d]imidazole-5-ol] cannot be ordered by IC50: > 100 nM for the first, > 100 nM for the second.

First: O=C(C1CC1)N1CCC[C@H](Nc2nccc(-n3c(-c4ccc5ccccc5n4)nc4cc(O)ccc43)n2)C1 [Compound 13b, (S)-cyclopropyl(3-((4-(5-hydroxy-2-(Quinoline-2-yl)-1H-benzo[d]imidazole-1-yl)pyrimidin-2-yl)amino)piperidine-1-yl)methanone]
Second: O=C(C1CC1)N1CCC[C@H](Nc2nccc(-n3c(-c4ccc5occc5c4)nc4cc(O)ccc43)n2)C1 [Compound 13d, (S)-(3-(4-(2-(benzofuran-5-yl)-5-hydroxy-1H-benz[d]imidazole-1-yl)pyrimidin-2-ylamino)piperidine-1-yl)(cyclopropyl)methanone]
The IC50 of the first is higher: 30 to 100 nM for the first, < 30 nM for the second.

First: O=C(C1CC1)N1CCC[C@H](Nc2nccc(-n3c(-c4ccc(F)c(C(F)(F)F)c4)nc4cc(O)ccc43)n2)C1 [Compound 13f, (S)-cyclopropyl(3-((4-(2-(4-fluoro-3-(trifluoromethyl)phenyl)-5-hydroxy-1H-benzo[d]imidazole-1-yl)pyrimidin-2-yl)amino)piperidine-1-yl)methanone]
Second: Oc1ccc2c(c1)nc(-c1ccc(F)c(C(F)(F)F)c1)n2-c1ccnc(NC2CCCCC2)n1 [Compound 10f, 1-(2-(cyclohexylamino)pyrimidin-4-yl)-2-(4-fluoro-3-(trifluoromethyl)phenyl)-1H-benzo[d]imidazole-5-ol]
The IC50 of the first is lower: 30 to 100 nM for the first, > 100 nM for the second. The first is the more potent here.

`O=C(C1CC1)N1CCC[C@H](Nc2nccc(-n3c(-c4ccc5c(c4)OCCO5)nc4cc(O)ccc43)n2)C1` [Compound 13c, (S)-cyclopropyl(3-((4-(2-(2,3-dihydrobenzo[b][1,4]dioxin-6-yl)-5-hydroxy-1H-benzo[d]imidazole-1-yl)pyrimidin-2-yl)amino)piperidine-1-yl)methanone] and `O=C(C1CC1)N1CCC[C@H](Nc2nccc(-n3c(-c4ccc5c(c4)OCO5)nc4cc(O)ccc43)n2)C1` [Compound 13g, (S)-(3-(4-(2-(benzo[d][1,3]dioxole-5-yl)-5-hydroxy-1H-benz[d]imidazole-1-yl)pyrimidin-2-ylamino)piperidine-1-yl)(cyclopropyl)methanone] fall in the same range of IC50: 30 to 100 nM for the first, 30 to 100 nM for the second.

For `Oc1ccc2c(c1)nc(-c1ccc3ccccc3c1)n2-c1ccnc(NC2CCCCC2)n1` [Compound 10a, 1-(2-(cyclohexylamino)pyrimidin-4-yl)-2-(naphthalene-2-yl)-1H-benzo[d]imidazole-5-ol], the IC50 was > 100 nM.

same assay, conditions: Table 2; ATP 10 μM, ATF2 3 μM

First: Oc1ccc2nc(-c3ccc4c(c3)OCCO4)n(-c3ccnc(NC4CCCCC4)n3)c2c1 [Compound 23c, 1-(2-(cyclohexylamino)pyrimidin-4-yl)-2-(2,3-dihydrobenzo[b][1,4]dioxin-6-yl)-1H-benzo[d]imidazole-6-ol]
Second: Oc1ccc2nc(-c3ccc4c(c3)OCCO4)n(-c3ccnc(NC4CCOCC4)n3)c2c1 [Compound 22c, 2-(2,3-dihydrobenzo[b][1,4]dioxin-6-yl)-1-(2-((tetrahydro-2H-pyran-4-yl)amino)pyrimidin-4-yl)-1H-benzo[d]imidazole-6-ol]
The IC50 of the first is higher: > 100 nM for the first, 30 to 100 nM for the second. The second is the more potent here.

`Oc1ccc2nc(-c3ccc4ccccc4c3)n(-c3ccnc(NC4CCCCC4)n3)c2c1` [Compound 23a, 1-(2-(cyclohexylamino)pyrimidin-4-yl)-2-(naphthalene-2-yl)-1H-benzo[d]imidazole-6-ol] and `Oc1ccc2nc(-c3ccc4ccccc4n3)n(-c3ccnc(NC4CCCCC4)n3)c2c1` [Compound 23b, 3-(2-(cyclohexylamino)pyrimidin-4-yl)-2-(Quinoline-2-yl)-3H-benz[d]imidazole-5-ol] cannot be ordered by IC50: > 100 nM for the first, > 100 nM for the second.

First: Oc1ccc2nc(-c3ccc(Cl)c(Cl)c3)n(-c3ccnc(NC4CCCCC4)n3)c2c1 [Compound 23e, 1-(2-(cyclohexylamino)pyrimidin-4-yl)-2-(3,4-dichlorophenyl)-1H-benzo[d]imidazole-6-ol]
Second: Oc1ccc2nc(-c3ccc4occc4c3)n(-c3ccnc(NC4CCCCC4)n3)c2c1 [Compound 23d, 2-(benzofuran-5-yl)-1-(2-(cyclohexylamino)pyrimidin-4-yl)-1H-benzo[d]imidazole-6-ol]
The IC50 of the first is lower: 30 to 100 nM for the first, > 100 nM for the second. The first is the more potent here.

`O=C(C1CC1)N1CCC[C@H](Nc2nccc(-n3c(-c4ccc5occc5c4)nc4ccc(O)cc43)n2)C1` [Compound 26d, (S)-(3-((4-(2-(benzofuran-5-yl)-6-hydroxy-1H-benzo[d]imidazole-1-yl)pyrimidin-2-yl)amino)piperidine-1-yl)(cyclopropyl)methanone] and `O=C(C1CC1)N1CCC[C@H](Nc2nccc(-n3c(-c4ccc(Cl)c(Cl)c4)nc4ccc(O)cc43)n2)C1` [Compound 26e, (S)-cyclopropyl(3-((4-(2-(3,4-dichlorophenyl)-6-hydroxy-1H-benzo[d]imidazole-1-yl)pyrimidin-2-yl)amino)piperidine-1-yl)methanone] cannot be ordered by IC50: < 30 nM for the first, < 30 nM for the second.

`Oc1c2ccccc2c2c3c(cccc13)N=N2` [SP600125, reference compound] and `Oc1ccc2nc(-c3ccc4ccccc4n3)n(-c3ccnc(NC4CCOCC4)n3)c2c1` [Compound 22b, 2-(Quinoline-2-yl)-1-(2-((tetrahydro-2H-pyran-4-yl)amino)pyrimidin-4-yl)-1H-benzo[d]imidazole-6-ol] fall in the same range of IC50: 30 to 100 nM for the first, 30 to 100 nM for the second.

Compared with `O=C(C1CC1)N1CCC[C@H](Nc2nccc(-n3c(-c4ccc(F)c(C(F)(F)F)c4)nc4ccc(O)cc43)n2)C1` [Compound 26f, (S)-cyclopropyl(3-((4-(2-(4-fluoro-3-(trifluoromethyl)phenyl)-6-hydroxy-1H-benzo[d]imidazole-1-yl)pyrimidin-2-yl)amino)piperidine-1-yl)methanone], `Oc1ccc2nc(-c3ccc(F)c(C(F)(F)F)c3)n(-c3ccnc(NC4CCCCC4)n3)c2c1` [Compound 23f, 1-(2-(cyclohexylamino)pyrimidin-4-yl)-2-(4-fluoro-3-(trifluoromethyl)phenyl)-1H-benzo[d]imidazole-6-ol] is higher in IC50: 30 to 100 nM for the first, > 100 nM for the second.

With `O=C(C1CC1)N1CCC[C@H](Nc2nccc(-n3c(-c4ccc5ccccc5n4)nc4ccc(O)cc43)n2)C1` [Compound 26b, (S)-cyclopropyl(3-(4-(6-hydroxy-2-(Quinoline-2-yl)-1H-benzo[d]imidazole-1-yl)pyrimidin-2-ylamino)piperidine-1-yl)methanone] the IC50 was 30 to 100 nM.

same assay, conditions: Table 3; ATP 10 μM, ATF2 3 μM

Compared with `Oc1c2ccccc2c2c3c(cccc13)N=N2` [SP600125, reference compound], `O=C(C1CC1)N1CCC[C@@H](Nc2nccc(-n3c(-c4ccc5ccccc5c4)nc4cc(O)c(O)cc43)n2)C1` [Compound 35a, (R)-cyclopropyl(3-(4-(5,6-dihydroxy-2-(naphthalene-2-yl)-1H-benzo[d]imidazole-1-yl)pyrimidin-2-ylamino)piperidine-1-yl)methanone] is lower in IC50: 30 to 100 nM for the first, < 30 nM for the second. The second is the more potent here.

`O=C(C1CC1)N1CCC[C@@H](Nc2nccc(-n3c(-c4ccc(Cl)c(Cl)c4)nc4cc(O)c(O)cc43)n2)C1` [Compound 35b, (R)-cyclopropyl(3-(4-(2-(3,4-dichlorophenyl)-5,6-dihydroxy-1H-benzo[d]imidazole-1-yl)pyrimidin-2-ylamino)piperidine-1-yl)methanone] and `O=C(C1CC1)N1CCC[C@@H](Nc2nccc(-n3c(-c4ccc5occc5c4)nc4cc(O)c(O)cc43)n2)C1` [Compound 35e, (R)-(3-(4-(2-(benzofuran-5-yl)-5,6-dihydroxy-1H-benzo[d]imidazole-1-yl)pyrimidin-2-ylamino)piperidine-1-yl)(cyclopropyl)methanone] cannot be ordered by IC50: < 30 nM for the first, < 30 nM for the second.

With `O=C(C1CC1)N1CCC[C@@H](Nc2nccc(-n3c(-c4ccc(F)c(C(F)(F)F)c4)nc4cc(O)c(O)cc43)n2)C1` [Compound 35c, (R)-cyclopropyl(3-(4-(2-(4-fluoro-3-(trifluoromethyl)phenyl)-5,6-dihydroxy-1H-benzo[d]imidazole-1-yl)pyrimidin-2-ylamino)piperidine-1-yl)methanone] the IC50 was < 30 nM.
